Data as given in the supplement of paper PMC10307832.

How the values were obtained:
Experiment in all cases: relative viability (nuclei count vs DMSO), 5 days (fraction); higher = more cells survive
NCI-H2023 = system: NCI-H2023
In short: (§1)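 Each reported value is a median over duplicate plates. It expresses relative viability: treated-well nuclei count divided by vehicle-well nuclei count. Lung cancer cell lines in 1536-well plates were dosed by pin tool a day after seeding, alone with one drug or with a fixed anchor-drug dose plus five library-drug doses (not always all listed) in √10 steps, and nuclei were counted after 5 days.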

NCI-H1793 = system: NCI-H1793
In short: as §1

SK-LU-1 = system: SK-LU-1
In short: as §1

EMC-BAC-2 = system: EMC-BAC-2
In short: as §1

HCC-78 = system: HCC-78
In short: as §1

LC-2-ad = system: LC-2-ad
In short: as §1

NCI-H2405 = system: NCI-H2405
In short: as §1

NCI-H2009 = system: NCI-H2009
In short: as §1

UMC-11 = system: UMC-11
In short: as §1

HCC-15 = system: HCC-15
In short: as §1

NCI-H23 = system: NCI-H23
In short: as §1

COR-L23 = system: COR-L23
In short: as §1

NCI-H1993 = system: NCI-H1993
In short: as §1

ABC-1 = system: ABC-1
In short: as §1

NCI-H1944 = system: NCI-H1944
In short: as §1

HCC-366 = system: HCC-366
In short: as §1

NCI-H2228 = system: NCI-H2228
In short: as §1

NCI-H2126 = system: NCI-H2126
In short: as §1

NCI-H838 = system: NCI-H838
In short: as §1

NCI-H1734 = system: NCI-H1734
In short: as §1

HARA = system: HARA
In short: as §1

A-427 = system: A-427
In short: as §1

## C=C1C(=O)O[C@@H](CCCCCCCC)[C@@H]1C(=O)O [C-75] + C[C@]1(O)C[C@@H](c2nc(-c3ccc4ccc(-c5ccccc5)nc4c3)c3c(N)nccn32)C1 [Linsitinib] (partner 1 µM)
NCI-H2023; first compound 0.08 µM
  relative viability: 0.701
NCI-H2023; first compound 0.253 µM
  relative viability: 0.824
NCI-H2023; first compound 0.8 µM
  relative viability: 0.473
NCI-H2023; first compound 2.53 µM
  relative viability: 0.658
NCI-H2023; first compound 8 µM
  relative viability: 0.753
NCI-H1793; first compound 0.08 µM
  relative viability: 0.775
NCI-H1793; first compound 0.253 µM
  relative viability: 1.18
NCI-H1793; first compound 0.8 µM
  relative viability: 0.698
NCI-H1793; first compound 2.53 µM
  relative viability: 0.658
NCI-H1793; first compound 8 µM
  relative viability: 0.942
SK-LU-1; first compound 0.08 µM
  relative viability: 1.28
SK-LU-1; first compound 0.253 µM
  relative viability: 1.07
SK-LU-1; first compound 0.8 µM
  relative viability: 1.05
SK-LU-1; first compound 2.53 µM
  relative viability: 0.911
SK-LU-1; first compound 8 µM
  relative viability: 0.636
EMC-BAC-2; first compound 0.08 µM
  relative viability: 0.791
EMC-BAC-2; first compound 0.253 µM
  relative viability: 0.754
EMC-BAC-2; first compound 0.8 µM
  relative viability: 0.831
EMC-BAC-2; first compound 2.53 µM
  relative viability: 0.761
EMC-BAC-2; first compound 8 µM
  relative viability: 0.831
HCC-78; first compound 0.08 µM
  relative viability: 0.642
HCC-78; first compound 0.253 µM
  relative viability: 0.443
HCC-78; first compound 0.8 µM
  relative viability: 0.493
HCC-78; first compound 2.53 µM
  relative viability: 0.437
HCC-78; first compound 8 µM
  relative viability: 0.522
LC-2-ad; first compound 0.08 µM
  relative viability: 0.869
LC-2-ad; first compound 0.253 µM
  relative viability: 0.865
LC-2-ad; first compound 0.8 µM
  relative viability: 0.798
LC-2-ad; first compound 8 µM
  relative viability: 0.855
NCI-H2405; first compound 0.08 µM
  relative viability: 0.882
NCI-H2405; first compound 0.253 µM
  relative viability: 0.728
NCI-H2405; first compound 0.8 µM
  relative viability: 0.872
NCI-H2405; first compound 2.53 µM
  relative viability: 0.967
NCI-H2405; first compound 8 µM
  relative viability: 0.989
NCI-H2009; first compound 0.08 µM
  relative viability: 1.19
NCI-H2009; first compound 0.253 µM
  relative viability: 1.09
NCI-H2009; first compound 0.8 µM
  relative viability: 1.11
NCI-H2009; first compound 2.53 µM
  relative viability: 1.02
NCI-H2009; first compound 8 µM
  relative viability: 0.997
UMC-11; first compound 0.08 µM
  relative viability: 0.91
UMC-11; first compound 0.253 µM
  relative viability: 1.09
UMC-11; first compound 0.8 µM
  relative viability: 1.01
UMC-11; first compound 2.53 µM
  relative viability: 0.821
UMC-11; first compound 8 µM
  relative viability: 0.891
HCC-15; first compound 0.08 µM
  relative viability: 0.926
HCC-15; first compound 0.253 µM
  relative viability: 0.978
HCC-15; first compound 0.8 µM
  relative viability: 0.924
HCC-15; first compound 2.53 µM
  relative viability: 0.847
HCC-15; first compound 8 µM
  relative viability: 0.902
NCI-H23; first compound 0.08 µM
  relative viability: 0.541
NCI-H23; first compound 0.253 µM
  relative viability: 0.784
NCI-H23; first compound 0.8 µM
  relative viability: 0.506
NCI-H23; first compound 2.53 µM
  relative viability: 0.557
NCI-H23; first compound 8 µM
  relative viability: 0.561
COR-L23; first compound 0.08 µM
  relative viability: 0.935
COR-L23; first compound 0.253 µM
  relative viability: 0.907
COR-L23; first compound 0.8 µM
  relative viability: 0.856
COR-L23; first compound 2.53 µM
  relative viability: 0.632
COR-L23; first compound 8 µM
  relative viability: 0.909
NCI-H1993; first compound 0.08 µM
  relative viability: 0.705
NCI-H1993; first compound 0.253 µM
  relative viability: 0.773
NCI-H1993; first compound 0.8 µM
  relative viability: 0.751
NCI-H1993; first compound 2.53 µM
  relative viability: 0.744
NCI-H1993; first compound 8 µM
  relative viability: 0.763
ABC-1; first compound 0.08 µM
  relative viability: 0.85
ABC-1; first compound 0.253 µM
  relative viability: 0.854
ABC-1; first compound 0.8 µM
  relative viability: 0.705
ABC-1; first compound 2.53 µM
  relative viability: 0.764
ABC-1; first compound 8 µM
  relative viability: 0.552
NCI-H1944; first compound 0.08 µM
  relative viability: 1.13
NCI-H1944; first compound 0.253 µM
  relative viability: 0.961
NCI-H1944; first compound 0.8 µM
  relative viability: 1.26
NCI-H1944; first compound 8 µM
  relative viability: 1.19
HCC-366; first compound 0.08 µM
  relative viability: 0.629
HCC-366; first compound 0.253 µM
  relative viability: 0.645
HCC-366; first compound 0.8 µM
  relative viability: 0.558
HCC-366; first compound 8 µM
  relative viability: 0.258
NCI-H2228; first compound 0.08 µM
  relative viability: 1.03
NCI-H2228; first compound 0.253 µM
  relative viability: 1.04
NCI-H2228; first compound 0.8 µM
  relative viability: 0.543
NCI-H2228; first compound 2.53 µM
  relative viability: 0.594
NCI-H2228; first compound 8 µM
  relative viability: 0.66
NCI-H2126; first compound 0.08 µM
  relative viability: 0.698
NCI-H2126; first compound 0.253 µM
  relative viability: 0.783
NCI-H2126; first compound 0.8 µM
  relative viability: 0.703
NCI-H2126; first compound 2.53 µM
  relative viability: 0.683
NCI-H2126; first compound 8 µM
  relative viability: 0.711
NCI-H838; first compound 0.08 µM
  relative viability: 0.935
NCI-H838; first compound 0.253 µM
  relative viability: 0.706
NCI-H838; first compound 0.8 µM
  relative viability: 1.01
NCI-H838; first compound 2.53 µM
  relative viability: 0.943
NCI-H838; first compound 8 µM
  relative viability: 0.836
NCI-H1734; first compound 0.08 µM
  relative viability: 0.876
NCI-H1734; first compound 0.253 µM
  relative viability: 0.813
NCI-H1734; first compound 0.8 µM
  relative viability: 0.804
NCI-H1734; first compound 2.53 µM
  relative viability: 0.622
NCI-H1734; first compound 8 µM
  relative viability: 0.732
HARA; first compound 0.08 µM
  relative viability: 0.861
HARA; first compound 0.253 µM
  relative viability: 0.954
HARA; first compound 0.8 µM
  relative viability: 0.915
HARA; first compound 8 µM
  relative viability: 0.97
A-427; first compound 0.08 µM
  relative viability: 1.16
A-427; first compound 0.253 µM
  relative viability: 1
A-427; first compound 0.8 µM
  relative viability: 1.06
A-427; first compound 2.53 µM
  relative viability: 1.07
A-427; first compound 8 µM
  relative viability: 1.09
